Read-outs that look alike come from different tables or passages of the source.
System: human primary T-cells, IL-2 stimulated proliferation (JAK-1 and JAK-3 dependent; reported as JAK3 activity)
Test: Human primary T-cell proliferation stimulated by IL-2 (Example 3)
Assay type: cell-based
Conditions: tested under conditions described in Example 3 (IL-2 stimulated human primary T-cell proliferation), read-out: ability to inhibit JAK3 activity, IC50 range (Table V)
Method in brief: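 Peripheral-blood human T-cells pre-activated via TCR/CD28, IL-2-starved overnight, then cultured 72 h at 37 °C with compound in Yssel's medium containing IL-2 (80 U/mL in cell suspension). Proliferation read as viable-cell ATP by CellTiter-Glo luminescence; reduction versus control taken as JAK pathway inhibition.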

Question: With Cc1ccc(Nc2ncc(C)c(Nc3ccc4oc(=O)[nH]c4c3)n2)cc1C [Compound I-178, 5-[2-(3,4-Dimethyl-phenylamino)-5-methyl-pyrimidin-4-ylamino]-3H-benzooxazol-2-one] as the compound, how does the IC50 (Homo sapiens, T-cell) read?
Answer: < 500 nM

Question: Which IC50 (Homo sapiens, T-cell) does the source give for Cc1cnc(Nc2ccc3ccncc3c2)nc1Nc1ccc2oc(=O)[nH]c2c1 [IV-57, 5-[2-(Isoquinolin-7-ylamino)-5-methyl-pyrimidin-4-ylamino]-3H-benzooxazol-2-one] here?
Answer: > 10000 nM

Question: For CCc1cccc(Nc2ncc(C)c(Nc3ccc4oc(=O)[nH]c4c3)n2)c1 [Compound I-503, 5-(2-(3-ethylphenylamino)-5-methylpyrimidin-4-ylamino)benzo[d]oxazol-2(3H)-one], which IC50 (Homo sapiens, T-cell) is on record?
Answer: < 500 nM

Question: For Cc1cnc(Nc2cc(Cl)c(F)c(C(F)(F)F)c2)nc1Nc1ccc2oc(=O)[nH]c2c1 [Compound I-230, 5-(2-(3-chloro-4-fluoro-5-(trifluoromethyl)phenylamino)-5-methylpyrimidin-4-ylamino)benzo[d]oxazol-2(3H)-one], which IC50 (Homo sapiens, T-cell) is on record?
Answer: 500 to 5000 nM

Question: For Cc1cnc(Nc2ccc3cnccc3c2)nc1Nc1ccc2oc(=O)[nH]c2c1 [IV-53, 5-[2-(Isoquinolin-6-ylamino)-5-methyl-pyrimidin-4-ylamino]-3H-benzooxazol-2-one], which IC50 (Homo sapiens, T-cell) is on record?
Answer: 5000 to 10000 nM

Question: Cc1cnc(Nc2ccc(F)c(C(F)(F)F)c2)nc1Nc1ccc2oc(=O)[nH]c2c1 [Compound I-361, N2-(4-fluoro-3-trifluoromethyl)phenyl-5-methyl-N4-(2-oxo-2,3-dihydro-1,3-benzoxazol-5-yl)-2,4-pyrimidinediamine] was tested. Which IC50 did it give?
Answer: < 500 nM

Question: Which IC50 (Homo sapiens, T-cell) does the source give for Cc1cnc(Nc2ccc(N3C[C@@H](C)N(C)[C@@H](C)C3)nc2)nc1Nc1ccc2oc(=O)[nH]c2c1 [II-127, 5-methyl-N4-(2-oxo-2,3-dihydro-1,3-benzoxazol-5-yl)-N2-[2-(cis-3,4,5-trimethylpiperazino)pyridin-5-yl]-2,4-pyrimidinediamine] here?
Answer: < 500 nM

Question: How did the IC50 turn out when CNC(=O)COc1cccc(Nc2ncc(C)c(Nc3ccc4oc(=O)[nH]c4c3)n2)c1 [Compound I-306, 5-methyl-N2-(3-methylaminocarbonylmethoxy)phenyl-N4-(2-oxo-2,3-dihydro-1,3-benzoxazol-5-yl)-2,4-pyrimidinediamine] was run?
Answer: < 500 nM

Question: COc1cccc(Nc2ncc(C)c(Nc3ccc4oc(=O)[nH]c4c3)n2)c1 [Compound I-337, N2-(3-methoxy)phenyl-5-methyl-N4-(2-oxo-2,3-dihydro-1,3-benzoxazol-5-yl)-2,4-pyrimidinediamine] was tested. Which IC50 did it give?
Answer: < 500 nM

Question: Which IC50 does the source give for Cn1c(=O)oc2ccc(Nc3nc(Nc4cccc(NS(C)(=O)=O)c4)ncc3F)cc21 [Compound I-79, N2-((3-methylsulfonylamino)phenyl)-N4-(3-methyl-2-oxo-2,3-dihydrobenzo[d]oxazol-5-yl)-5-fluoropyrimidine-2,4-diamine] here?
Answer: 500 to 5000 nM

Question: How did the IC50 (Homo sapiens, T-cell) turn out when Cc1cnc(Nc2ccc3ccccc3c2)nc1Nc1ccc2oc(=O)[nH]c2c1 [IV-54, 5-[5-Methyl-2-(naphthalen-2-ylamino)-pyrimidin-4-ylamino]-3H-benzooxazol-2-one] was run?
Answer: < 500 nM

Question: COc1ccc(Nc2ncc(C)c(Nc3ccc4oc(=O)[nH]c4c3)n2)cc1C [Compound I-258, 5-(2-(4-methoxy-3-methylphenylamino)-5-methylpyrimidin-4-ylamino)benzo[d]oxazol-2(3H)-one] was tested. Which IC50 (Homo sapiens, T-cell) did it give?
Answer: < 500 nM

Question: Which IC50 (Homo sapiens, T-cell) does the source give for Cc1cnc(Nc2cc(C)c(I)c(C)c2)nc1Nc1ccc2oc(=O)[nH]c2c1 [Compound I-527, 5-[2-(4-Iodo-3,5-dimethyl-phenylamino)-5-methyl-pyrimidin-4-ylamino]-3H-benzooxazol-2-one] here?
Answer: < 500 nM

Question: How did the IC50 turn out when Cc1cnc(Nc2cccc(OCC(N)=O)c2)nc1Nc1ccc2oc(=O)[nH]c2c1 [Compound I-319, N2-[3-(aminocarbonylmethoxy)]phenyl-5-methyl-N4-(2-oxo-2,3-dihydro-1,3-benzoxazol-5-yl)-2,4-pyrimidinediamine] was run?
Answer: < 500 nM

Question: How did the IC50 turn out when Cc1cnc(Nc2cc(C)c(C)c(C)c2)nc1Nc1ccc2oc(=O)n(COP(=O)(O)O)c2c1 [Compound I-406, 5-methyl-N4-[3-(phosphonooxy)methyl-2-oxo-2,3-dihydro-1,3-benzoxazol-5-yl]-N2-(3,4,5-trimethyl)phenyl-2,4-pyrimidinediamine] was run?
Answer: 500 to 5000 nM

Question: How did the IC50 (Homo sapiens, T-cell) turn out when Cc1cnc(Nc2ccc(N3CCNC(C)C3)nc2)nc1Nc1ccc2oc(=O)[nH]c2c1 (stereo not shown) [II-12, N4-(benzo[d]oxazol-2(3H)-on-5-yl)-N2-(6-(3-methylpiperazin-1-yl)pyridin-3-yl)-5-methylpyrimidine-2,4-diamine] was run?
Answer: < 500 nM

Question: For Cc1cnc(Nc2ccc(N3CCN(C)CC3)nn2)nc1Nc1ccc2oc(=O)[nH]c2c1 [IV-3, N4-(benzo[d]oxazol-2(3H)-on-5-yl)-N2-(6-(4-methylpiperazin-1-yl)pyridazin-3-yl)-5-methylpyrimidine-2,4-diamine], which IC50 (Homo sapiens, T-cell) is on record?
Answer: > 10000 nM

Question: For Cc1cnc(Nc2ccc(C(N)=O)cc2)nc1Nc1ccc2oc(=O)n(COP(=O)(OC(C)(C)C)OC(C)(C)C)c2c1 [Compound I-146, di-tert-butyl (5-(2-(4-carbamoylphenylamino)-5-methylpyrimidin-4-ylamino)-2-oxobenzo[d]oxazol-3(2H)-yl)methyl phosphate], which IC50 (Homo sapiens, T-cell) is on record?
Answer: 500 to 5000 nM

Question: How did the IC50 (Homo sapiens, T-cell) turn out when Cc1cnc(Nc2ccc(Cl)c(C(F)(F)F)c2)nc1Nc1ccc2oc(=O)[nH]c2c1 [Compound I-153, 5-[2-(4-Chloro-3-trifluoromethyl-phenylamino)-5-methyl-pyrimidin-4-ylamino]-3H-benzooxazol-2-one] was run?
Answer: < 500 nM

Question: How did the IC50 (Homo sapiens, T-cell) turn out when Cc1cnc(Nc2ccc(N[C@H]3CCCN(Cc4ccccc4)C3)nc2)nc1Nc1ccc2oc(=O)[nH]c2c1 [II-99, (S)-5-(2-(6-(1-benzylpiperidin-3-ylamino)pyridin-3-ylamino)-5-methylpyrimidin-4-ylamino)benzo[d]oxazol-2(3H)-one] was run?
Answer: < 500 nM

Question: For COc1cc(Nc2ncc(C)c(Nc3ccc4oc(=O)[nH]c4c3)n2)cc(C(F)F)c1 [Compound I-273, 5-(2-(3-(difluoromethyl)-5-methoxyphenylamino)-5-methylpyrimidin-4-ylamino)benzo[d]oxazol-2(3H)-one], which IC50 (Homo sapiens, T-cell) is on record?
Answer: < 500 nM

Question: Which IC50 does the source give for Cc1cnc(Nc2cccc(N3CCOCC3)c2)nc1Nc1ccc2oc(=O)[nH]c2c1 [Compound I-46, N4-(benzo[d]oxazol-2(3H)-on-5-yl)-N2-((3-morpholinyl)phenyl)-5-methylpyrimidine-2,4-diamine] here?
Answer: < 500 nM

Question: COCCOc1ccc(Nc2ncc(C)c(Nc3ccc4oc(=O)[nH]c4c3)n2)cc1C(F)(F)F [Compound I-165, 5-{2-[4-(2-Methoxy-ethoxy)-3-trifluoromethyl-phenylamino]-5-methyl-pyrimidin-4-ylamino}-3H-benzooxazol-2-one] was tested. Which IC50 (Homo sapiens, T-cell) did it give?
Answer: < 500 nM

Question: Which IC50 (Homo sapiens, T-cell) does the source give for Cc1cnc(Nc2cc(C)c(C)c(C)c2)nc1Nc1cc(C)c2oc(=O)[nH]c2c1 [Compound I-475, 7-methyl-5-(5-methyl-2-(3,4,5-trimethylphenylamino)pyrimidin-4-ylamino)benzo[d]oxazol-2(3H)-one] here?
Answer: < 500 nM

Question: With CC(=O)c1ccc(F)c(Nc2ncc(C)c(Nc3ccc4oc(=O)[nH]c4c3)n2)c1 [Compound I-519, 5-(2-(5-acetyl-2-fluorophenylamino)-5-methylpyrimidin-4-ylamino)benzo[d]oxazol-2(3H)-one] as the compound, how does the IC50 (Homo sapiens, T-cell) read?
Answer: < 500 nM

Question: With COc1cc(Nc2ncc(C)c(Nc3cc(F)c4oc(=O)[nH]c4c3)n2)cc(C(F)(F)F)c1 [Compound I-251, 7-fluoro-5-(2-(3-methoxy-5-(trifluoromethyl)phenylamino)-5-methylpyrimidin-4-ylamino)benzo[d]oxazol-2(3H)-one] as the compound, how does the IC50 (Homo sapiens, T-cell) read?
Answer: < 500 nM

Question: How did the IC50 (Homo sapiens, T-cell) turn out when Cc1ccc(Nc2ncc(C)c(Nc3ccc4oc(=O)[nH]c4c3)n2)cc1 [Compound I-421, 5-(2-(p-toluidino)-5-methylpyrimidin-4-ylamino)benzo[d]oxazol-2(3H)-one] was run?
Answer: < 500 nM

Question: For Cc1cnc(Nc2cccc(OCC(=O)N3CCOCC3)c2)nc1Nc1ccc2oc(=O)[nH]c2c1 [Compound I-320, 5-methyl-N2-[3-(morpholinocarbonylmethoxy)]phenyl-N4-(2-oxo-2,3-dihydro-1,3-benzoxazol-5-yl)-2,4-pyrimidinediamine], which IC50 is on record?
Answer: < 500 nM

Question: N#Cc1ccc(Nc2ncc(F)c(Nc3ccc4oc(=O)[nH]c4c3)n2)cc1 [Compound I-45, N4-(benzo[d]oxazol-2(3H)-on-5-yl)-N2-(4-cyanophenyl)-5-fluoropyrimidine-2,4-diamine] was tested. Which IC50 (Homo sapiens, T-cell) did it give?
Answer: < 500 nM

Question: For Cc1cnc(Nc2ccc3c(c2)CN(CC2CCCC2)C3)nc1Nc1ccc2oc(=O)[nH]c2c1 [III-10, N4-(benzo[d]oxazol-2(3H)-on-5-yl)-N2-(2-cyclopentylmethylisoindolin-5-yl)-5-methylpyrimidine-2,4-diamine], which IC50 (Homo sapiens, T-cell) is on record?
Answer: < 500 nM

Question: With Cc1cc(Nc2ncc(F)c(Nc3ccc4oc(=O)[nH]c4c3)n2)cnc1N1CCN(C)CC1 [II-30, N4-(benzoxazolin-2-on-5-yl)-N2-[3-methyl-2-(4-methylpiperazin-1-yl)pyridin-5-yl]-5-fluoropyrimidine-2,4-diamine] as the compound, how does the IC50 (Homo sapiens, T-cell) read?
Answer: < 500 nM

Question: How did the IC50 (Homo sapiens, T-cell) turn out when Cc1cnc(Nc2cc(C)c(C)c(C)c2)nc1Nc1cc(F)c2oc(=O)[nH]c2c1 [Compound I-489, 7-fluoro-5-(5-methyl-2-(3,4,5-trimethylphenylamino)pyrimidin-4-ylamino)benzo[d]oxazol-2(3H)-one] was run?
Answer: < 500 nM

Question: Cc1cnc(Nc2cc(C(C)N3CCCC3)cc(C(F)(F)F)c2)nc1Nc1ccc2oc(=O)[nH]c2c1 (stereo not shown) [Compound I-463, 5-(5-methyl-2-(3-(1-(pyrrolidin-1-yl)ethyl)-5-(trifluoromethyl)phenylamino)pyrimidin-4-ylamino)benzo[d]oxazol-2(3H)-one] was tested. Which IC50 (Homo sapiens, T-cell) did it give?
Answer: < 500 nM

Question: Which IC50 does the source give for Cc1cc(C)cc(Nc2ncc(C)c(Nc3ccc4oc(=O)[nH]c4c3)n2)c1 [Compound I-302, N2-(3,5-dimethyl)phenyl-5-methyl-N4-(2-oxo-2,3-dihydro-1,3-benzoxazol-5-yl)-2,4-pyrimidinediamine] here?
Answer: < 500 nM

From patent US10005767B2, “Compositions and methods for inhibition of the JAK pathway” (Rigel Pharmaceuticals, Inc., priority 2009, dated 2018)
